Measurements from patent US12247011B2, “Selective inhibitors of NLRP3 inflammasome” (NodThera Limited, priority 2017, dated 2025).

Tested on: IL-1β release upon NLRP3 activation in peripheral blood mononuclear cells (PBMC)
Test: PBMC IC50 Determination Assay
Format: cell-based
Conditions: Homo sapiens; LPS-primed PBMC, 30 min compound, stimulated with ATP (5 mM) or nigericin (10 μM) for 1 h; IL-1β ELISA; read-out: PBMC IC50
Method: PBMC IC50 Determination Assay
The compounds of the present disclosure were tested for their inhibitory activity against IL-1β release upon NLRP3 activation in peripheral blood mononuclear cells (PBMC).
Isolated cells were seeded into the wells of a 96-well plate and incubated for 3 h with lipopolysaccharide (LPS). Following medium exchange, the compounds of the present disclosure were added (a single compound per well) and the cells were incubated for 30 min. Next, the cells were stimulated either with ATP (5 mM) or nigericin (10 μM) for 1 h and the cell culture media from the wells were collected for further analysis.
The release of IL-1β into the media was determined by a quantitative detection of IL-1β in the media using an IL-1β enzyme-linked immunosorbent assay (ELISA) Ready-SET-Go!, eBioscience cat. […] Subsequently, plates were blocked with blocking buffer for 1 h at room temperature (rt) and after washing with a buffer (PBS with 0.05% Tween-20) incubated with protein standard and culture media. […] Plates were washed and incubated with HRP-streptavidin for 30 min at rt and washed again. The signal was developed after addition of 3,3,5,5-tetramethylbenzidine-peroxidase (TMB) until colour appeared and the reaction was stopped by 2 M H2SO4. A microplate spectrophotometer (BioTek) was used to detect signals with 450 nm. The detection range of IL-1β ELISA was 2-150 ng/ml.

`O=C(Nc1c2c(cc3c1CCC3)CCC2)OC(Cn1cccn1)C(=O)O` (stereo not drawn) [Compound 40, 2-{[(1,2,3,5,6,7-hexahydro-s-indacen-4-yl)carbamoyl]oxy}-3-(1H-pyrazol-1-yl)propanoic acid] showed an IC50 of 100 to 1000 nM.

Molecule `CCOC(=O)[C@@H](Cc1cccc(C#N)c1)OC(=O)Nc1c2c(cc3c1CCC3)CCC2` [Compound 41, Ethyl (2R)-3-(3-cyanophenyl)-2-{[(1,2,3,5,6,7-hexahydro-s-indacen-4-yl)carbamoyl]oxy}propanoate] has an IC50 of 10 to 100 nM.

`CCOC(=O)C(Cc1cccc(-n2cccn2)c1)OC(=O)Nc1c2c(cc3c1CCC3)CCC2` (stereo not drawn) [Compound 42, Ethyl 2-{[(1,2,3,5,6,7-hexahydro-s-indacen-4-yl)carbamoyl]oxy}-3-[3-(1H-pyrazol-1-yl)phenyl]propanoate] was tested, and the IC50 was 100 to 1000 nM.

`CCOC(=O)[C@@H](Cc1cccc(-n2cccn2)c1)OC(=O)Nc1c2c(cc3c1CCC3)CCC2` [Compound 43, Ethyl (2R)-2-{[(1,2,3,5,6,7-hexahydro-s-indacen-4-yl)carbamoyl]oxy}-3-[3-(1H-pyrazol-1-yl)phenyl]propanoate] showed an IC50 of 100 to 1000 nM.

For `CCOC(=O)C(Cn1cccn1)OC(=O)Nc1c(F)cccc1F` (stereo not drawn) [Compound 44], the IC50 was 100 to 1000 nM.

`CCOC(=O)C(Cn1cccn1)OC(=O)Nc1ccccc1` (stereo not drawn) [Compound 45, Ethyl 2-[(phenylcarbamoyl)oxy]-3-(1H-pyrazol-1-yl)propanoate] was tested, and the IC50 was greater than 10000 nM.

`CCOC(=O)C(Cn1cccn1)OC(=O)Nc1c(C)cccc1CC` (stereo not drawn) [Compound 46, Ethyl 2-{[(2-ethyl-6-methylphenyl)carbamoyl]oxy}-3-(1H-pyrazol-1-yl)propanoate] was tested, and the IC50 was 100 to 1000 nM.

In the case of `CCOC(=O)C(Cn1cccn1)OC(=O)Nc1c(CC)cccc1CC` (stereo not drawn) [Compound 48, Ethyl 2-{[(2,6-diethylphenyl)carbamoyl]oxy}-3-(1H-pyrazol-1-yl)propanoate], the IC50 is reported as 100 to 1000 nM.

`CCOC(=O)C(Cn1cccn1)OC(=O)Nc1c(C)cccc1F` (stereo not drawn) [Compound 49, Ethyl 2-{[(2-fluoro-6-methylphenyl)carbamoyl]oxy}-3-(1H-pyrazol-1-yl)propanoate] gave an IC50 of 100 to 1000 nM.

With `CCOC(=O)C(Cn1cccn1)OC(=O)Nc1c(F)cccc1Cl` (stereo not drawn) [Compound 50, Ethyl 2-{[(2-chloro-6-fluorophenyl)carbamoyl]oxy}-3-(1H-pyrazol-1-yl)propanoate] the IC50 was 100 to 1000 nM.

With `CCOC(=O)C(Cn1cccn1)OC(=O)Nc1c(C)cccc1Cl` (stereo not drawn) [Compound 51, Ethyl 2-{[(2-chloro-6-methylphenyl)carbamoyl]oxy}-3-(1H-pyrazol-1-yl)propanoate] the IC50 was 1000 to 10000 nM.

With `CCOC(=O)C(Cn1cccn1)OC(=O)Nc1c(Cl)cccc1Cl` (stereo not drawn) [Compound 52, Ethyl 2-{[(2,6-dichlorophenyl)carbamoyl]oxy}-3-(1H-pyrazol-1-yl)propanoate] the IC50 was 1000 to 10000 nM.

With `CCOC(=O)C(Cn1cccn1)OC(=O)NC1CCCCC1` (stereo not drawn) [Compound 53, ethyl 2-[(cyclohexylcarbamoyl)oxy]-3-(1H-pyrazol-1-yl)-propanoate] the IC50 was 1000 to 10000 nM.

`CCOC(=O)C(Cn1cccn1)OC(=O)NC1CCCC1` (stereo not drawn) [Compound 54, Ethyl 2-[(cyclopentylcarbamoyl)oxy]-3-(1H-pyrazol-1-yl)propanoate] was tested, and the IC50 was 1000 to 10000 nM.

In the case of `CCOC(=O)C(Cn1cccn1)OC(=O)NC1CCCCCC1` (stereo not drawn) [Compound 56, Ethyl 2-[(cycloheptylcarbamoyl)oxy]-3-(1H-pyrazol-1-yl)propanoate], the IC50 is reported as greater than 10000 nM.

`CCOC(=O)C(Cn1cccn1)OC(=O)Nc1c(C)cccc1C#N` (stereo not drawn) [Compound 57, Ethyl 2-{[(2-cyano-6-methylphenyl)carbamoyl]oxy}-3-(1H-pyrazol-1-yl)propanoate] showed an IC50 greater than 10000 nM.

`CCOC(=O)C(Cn1cccn1)OC(=O)Nc1c(C#N)cccc1CC` (stereo not drawn) [Compound 58, Ethyl 2-{[(2-cyano-6-ethylphenyl)carbamoyl]oxy}-3-(1H-pyrazol-1-yl)propanoate] was tested, and the IC50 was 1000 to 10000 nM.

For `CCOC(=O)C(Cn1cccn1)OC(=O)Nc1c(Cl)cccc1C#N` (stereo not drawn) [Compound 59, Ethyl 2-{[(2-chloro-6-cyanophenyl)carbamoyl]oxy}-3-(1H-pyrazol-1-yl)propanoate], the IC50 was greater than 10000 nM.
